Experimental data published in patent US12661410B2, “Compounds for targeted degradation of RET” (C4 Therapeutics, Inc., priority 2020, dated 2026).
Changes are numbered by the printed parent chain. Read-outs that look alike come from different tables or passages of the source.

Columns and labels:
RET(KD: 658-1114 G810R) = target: T1, RET(KD: 658-1114 G810R) (Homo sapiens, UniProt P07949, G810R); assay: HiBiT-Degradation, RET G810R degradation assay (Nano-Glo HiBiT Lytic), 293T.165 cells; type: cell-based; conditions: for Emax / DC50: 6.0 hours
T1 construct: 658-1114; expressed in transfected cells; host or cells: 293T.165 (293T cells, generated in-house)
T1 sequence (P07949 658-1114 G810R): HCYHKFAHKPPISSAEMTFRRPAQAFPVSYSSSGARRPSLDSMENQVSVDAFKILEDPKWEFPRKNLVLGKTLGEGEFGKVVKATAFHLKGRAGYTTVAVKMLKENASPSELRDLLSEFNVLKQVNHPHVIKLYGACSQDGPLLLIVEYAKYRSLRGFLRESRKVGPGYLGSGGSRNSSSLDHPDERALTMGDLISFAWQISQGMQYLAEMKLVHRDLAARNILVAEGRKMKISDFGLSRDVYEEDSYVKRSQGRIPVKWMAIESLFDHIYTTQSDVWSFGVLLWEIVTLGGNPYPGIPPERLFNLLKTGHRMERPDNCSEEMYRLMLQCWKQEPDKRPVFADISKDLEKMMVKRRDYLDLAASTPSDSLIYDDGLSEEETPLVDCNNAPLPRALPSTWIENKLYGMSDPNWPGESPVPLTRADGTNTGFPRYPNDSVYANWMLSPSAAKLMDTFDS
Procedure, shortened: (§1)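 HEK293T lines stably expressing HiBiT-tagged RET kinase domain (WT: 293T.144; G810R: 293T.165) were treated with degraders for 6 h in duplicate, 11-point half-log series from 10 μM top dose. Lysis with Nano-Glo HiBiT Lytic reagent, luminescence read; DC50 and Emax (% remaining protein) derived from dose-response curves.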

RET (658-1114) = target: T2, RET (658-1114) (Homo sapiens, UniProt P07949); assay: HiBiT-Degradation, RET wild-type degradation assay (Nano-Glo HiBiT Lytic), 293T.144 cells; type: cell-based; conditions: for Emax / DC50: 6.0 hours
T2 construct: 658-1114; expressed in transfected cells; host or cells: 293T.144 (293T cells, generated in-house)
T2 sequence (P07949 658-1114): T1 sequence (P07949 658-1114 G810R) with R153G
Procedure, shortened: as §1

[1] = % remaining protein, read-out: 293T.165 RET(KD: 658-1114 G810R) 6.0 hours (Emax)
[2] = half-maximal degradation concentration, read-out: 293T.165 RET(KD: 658-1114 G810R) 6.0 hours (DC50)
[3] = RET G810R, read-out: HiBiT-Degradation 293T.165 RET(KD: 658-1114 G810R) 6.0 hours (DC50)
[4] = RET G810R, read-out: HiBiT-Degradation 293T.165 RET(KD: 658-1114 G810R) 6.0 hours (Emax)
[5] = RET wild-type, read-out: HiBiT-Degradation 293T.144 RET (658-1114) 6.0 hours (DC50)
[6] = RET wild-type, read-out: HiBiT-Degradation 293T.144 RET (658-1114) 6.0 hours (Emax)
[7] = HiBiT-Degradation, read-out: 293T.165 RET(KD: 658-1114 G810R) 6.0 hours (DC50)
[8] = HiBiT-Degradation, read-out: 293T.144 RET (658-1114) 6.0 hours (DC50)
[9] = HiBiT-Degradation, read-out: 293T.144 RET (658-1114) 6.0 hours (Emax)

Row | SMILES | 293T.165 RET(KD: 658-1114 G810R) 6.0 hours (IP) [nM] (RET(KD: 658-1114 G810R)) | Emax (RET(KD: 658-1114 G810R); [1]) | DC50 (RET(KD: 658-1114 G810R); [2]) | 293T.144 RET (658-1114) 6.0 hours (IP) [nM] (RET (658-1114)) | Emax (RET (658-1114); % remaining protein, read-out: 293T.144 RET (658-1114) 6.0 hours (Emax)) | DC50 (RET (658-1114); half-maximal degradation concentration, read-out: 293T.144 RET (658-1114) 6.0 hours (DC50)) | HiBiT-Degradation 293T.165 RET(KD: 658-1114 G810R) 6.0 hours (IP) [nM] (RET(KD: 658-1114 G810R); RET G810R) | DC50 (RET(KD: 658-1114 G810R); [3]) | Emax (RET(KD: 658-1114 G810R); [4]) | HiBiT-Degradation 293T.144 RET (658-1114) 6.0 hours (IP) [nM] (RET (658-1114); RET wild-type) | DC50 (RET (658-1114); [5]) | Emax (RET (658-1114); [6]) | 293T.165 RET(KD: 658-1114 G810R) 6.0 hours (Emax) (RET(KD: 658-1114 G810R); HiBiT-Degradation) | 293T.165 RET(KD: 658-1114 G810R) 6.0 hours (IP) [nM] (RET(KD: 658-1114 G810R); HiBiT-Degradation) | DC50 (RET(KD: 658-1114 G810R); [7]) | 293T.144 RET (658-1114) 6.0 hours (IP) [nM] (RET (658-1114); HiBiT-Degradation) | DC50 (RET (658-1114); [8]) | Emax (RET (658-1114); [9])
1 | CCC1(C(=O)NC(C)C)CCN(c2ccc(-c3nc(-c4cnn(C5CCN(C(=O)CC6(O)CCN(c7ccc(NC8CCC(=O)NC8=O)cc7Br)CC6)CC5)c4)cn4ncc(C#N)c34)cn2)CC1 (centres unmarked) [Compound 95, 1-[5-[6-[1-[1-[2-[1-[2-bromo-4-[(2,6-dioxo-3-piperidyl)amino]phenyl]-4-hydroxy-4-piperidyl]acetyl]-4-piperidyl]pyrazol-4-yl]-3-cyano-pyrazolo[1,5-a]pyrazin-4-yl]-2-pyridyl]-4-ethyl-N-isopropyl-piperidine-4-carboxamide] | ++++ (<50 nM = ++++) | < 30% | < 0.05 µM | ++++ (<50 nM = ++++) | < 30% | < 0.05 µM | – | – | – | – | – | – | – | – | – | – | – | –
2 | N#Cc1cnn2cc(-c3ccc(N4CCN(C(=O)CN5CCC(c6ccc(NC7CCC(=O)NC7=O)cc6F)CC5)CC4)nc3)cc(-c3ccc(N4CCN(Cc5ccccn5)CC4)nc3)c12 (centres unmarked) [Compound 67, 6-[6-[4-[2-[4-[4-[(2,6-dioxo-3-piperidyl)amino]-2-fluoro-phenyl]-1-piperidyl]acetyl]piperazin-1-yl]-3-pyridyl]-4-[6-[4-(2-pyridylmethyl)piperazin-1-yl]-3-pyridyl]pyrazolo[1,5-a]pyridine-3-carbonitrile] | – | < 50% | < 0.1 µM | – | – | – | ++++ (< 50 nM = ++++) | < 0.1 µM | < 50% | ++++ (< 50 nM = ++++) | < 0.05 µM | < 30% | – | – | – | – | – | –
3 | N#Cc1cnn2cc(-c3cnn(C4CCN(C(=O)CN5CCC(c6ccc(NC7CCC(=O)NC7=O)cc6F)CC5)CC4)c3)cc(-c3ccc(N4CC5CC(C4)N5Cc4ccccn4)nc3)c12 (centres unmarked) [Compound 73, 6-[1-[1-[2-[4-[4-[(2,6-dioxo-3-piperidyl)amino]-2-fluoro-phenyl]-1-piperidyl]acetyl]-4-piperidyl]pyrazol-4-yl]-4-[6-[6-(2-pyridylmethyl)-3,6-diazabicyclo[3.1.1]heptan-3-yl]-3-pyridyl]pyrazolo[1,5-a]pyridine-3-carbonitrile] | – | < 30% | < 0.05 µM | – | – | – | ++++ (< 50 nM = ++++) | < 0.05 µM | < 30% | ++++ (< 50 nM = ++++) | < 0.05 µM | < 30% | – | – | – | – | – | –
4 | N#Cc1cnn2cc(-c3ccc(N4CCN(C(=O)CN5CCC(c6ccc(NC7CCC(=O)NC7=O)cc6)CC5)CC4)cc3)cc(-c3ccc(N4CC5CC(C4)N5Cc4ccccc4)nc3)c12 (centres unmarked) [Compound 22, 4-(6-(6-Benzyl-3,6-diazabicyclo[3.1.1]heptan-3-yl)pyridin-3-yl)-6-(4-(4-(2-(4-(4-((2,6-dioxopiperidin-3-yl)amino)phenyl)piperidin-1-yl)acetyl)piperazin-1-yl)phenyl)pyrazolo[1,5-a]pyridine-3-carbonitrile] | – | < 30% | < 0.1 µM | – | – | – | – | – | – | – | – | – | ++++ (< 30% = ++++) | ++++ (< 50 nM = ++++) | < 0.1 µM | ++++ (< 50 nM = ++++) | < 0.05 µM | < 30%
5 | CCC1(NC(=O)C(C)C)CCN(c2ccc(-c3cc(-c4cnn(C5CCN(C(=O)CN6CCC(c7ccc(NC8CCC(=O)NC8=O)cc7F)CC6)CC5)c4)cn4ncc(C#N)c34)cn2)CC1 (centres unmarked) [Compound 55, N-[1-[5-[3-cyano-6-[1-[1-[2-[4-[4-[(2,6-dioxo-3-piperidyl)amino]-2-fluoro-phenyl]-1-piperidyl]acetyl]-4-piperidyl]pyrazol-4-yl]pyrazolo[1,5-a]pyridin-4-yl]-2-pyridyl]-4-ethyl-4-piperidyl]-2-methyl-propanamide] | – | < 50% | < 0.05 µM | – | – | – | – | – | – | – | – | – | +++ (<50% = +++) | ++++ (< 50 nM = ++++) | < 0.05 µM | ++++ (< 50 nM = ++++) | < 0.05 µM | < 30%
